The results in this text go back to patent US9050345B2, “Pyrrolotriazines as potassium ion channel inhibitors” (BRISTOL-MYERS SQUIBB COMPANY, priority 2013, dated 2015).

T1 sequence (P22460 whole entry): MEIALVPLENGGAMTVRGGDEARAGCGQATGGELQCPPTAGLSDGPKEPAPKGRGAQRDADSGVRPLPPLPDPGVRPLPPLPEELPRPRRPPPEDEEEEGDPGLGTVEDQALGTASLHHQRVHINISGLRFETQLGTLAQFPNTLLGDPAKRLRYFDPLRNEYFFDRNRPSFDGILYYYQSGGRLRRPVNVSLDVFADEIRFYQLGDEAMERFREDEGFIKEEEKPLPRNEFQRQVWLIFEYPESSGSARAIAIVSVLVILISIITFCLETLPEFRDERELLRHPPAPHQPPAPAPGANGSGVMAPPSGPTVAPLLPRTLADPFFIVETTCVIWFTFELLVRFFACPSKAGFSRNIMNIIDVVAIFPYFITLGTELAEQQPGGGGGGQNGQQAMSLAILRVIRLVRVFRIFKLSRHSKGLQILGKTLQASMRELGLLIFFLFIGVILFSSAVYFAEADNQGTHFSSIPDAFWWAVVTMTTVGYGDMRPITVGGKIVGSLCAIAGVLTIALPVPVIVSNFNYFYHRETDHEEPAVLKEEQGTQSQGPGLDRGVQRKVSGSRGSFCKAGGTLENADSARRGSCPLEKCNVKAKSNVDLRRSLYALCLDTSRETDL

The first experiment concerns the target T1, human KV 1.5 (IKur) (Homo sapiens, UniProt P22460).
T1 construct: expressed in transfected cells
The experiment is described as follows: block of IKur current in patch clamped L-929 cells expressing human Kv1.5. Type of experiment: cell-based. Conditions: 0.3 μM; patch clamped mammalian L-929 cells stably expressing human Kv1.5.
On to `NS(=O)(=O)c1cncc(-c2nc(NCC3CCCCO3)c3c(-c4ccccc4)ccn3n2)c1` (stereo not drawn) [Example 102, 5-(5-phenyl-4-((tetrahydro-2H-pyran-2-yl)methylamino)pyrrolo[1,2-f][1,2,4]triazin-2-yl)pyridine-3-sulfonamide], for which the “KV1_5% Inh L929 @0.3 μM” value is on record as 98.89%.
For `NS(=O)(=O)CCc1cncc(-c2nc(NCc3ccccn3)c3c(-c4ccccc4)ccn3n2)c1` [Example 38, 2-(5-(5-Phenyl-4-(pyridin-2-ylmethylamino)pyrrolo[1,2-f][1,2,4]triazin-2-yl)pyridin-3-yl)ethanesulfonamide], the “KV1_5% Inh L929 @0.3 μM” value came to 97.45%.
Regarding “1-(1-(4- (benzylamino)-5- phenylpyrrolo [1,2-f][1,2,4] triazine-2-carbonyl) piperidin-4-yl)-1H- benzo[d]imidazol- 2(3H)-one [Example 121]”, the “KV1_5% Inh L929 @0.3 μM” value was 38.74%.
On the same count and under the same terms, the same measure for `O=C(NCC(O)CO)c1cncc(-c2nc(NCc3ccccc3)c3c(-c4ccccc4)ccn3n2)c1` (stereo not drawn) [Example 97, 5-(4-(benzylamino)-5-phenylpyrrolo [1,2-f][1,2,4]triazin-2-yl)-N-(2,3-dihydroxypropyl) nicotinamide]: 96.86%.

Staying with this experiment, now noted: L929, 0.3 μM; patch clamped mammalian L-929 cells stably expressing human Kv1.5; read-out: KV1_5% Inh L929 @0.3 μM.
Regarding `CC(C)CS(=O)(=O)Nc1cncc(-c2nc(NCc3ccccn3)c3c(-c4ccccc4)ccn3n2)c1` [Example 58, 2-methyl-N-(5-(5-phenyl-4-(pyridin-2-ylmethylamino)pyrrolo [1,2-f][1,2,4]triazin-2-yl)pyridin-3-yl) propane-1-sulfonamide], the inhibition at 0.3 µM stood at 96.1%.
On the same count and under the same terms, the same measure for `NC(=O)[C@@H]1C[C@H]1c1nc(NCc2ccccn2)c2c(-c3ccccc3)ccn2n1` (racemic) [Example 44, (±)-2-(5-Phenyl-4-(pyridin-2-ylmethylamino)pyrrolo[1,2-f][1,2,4]triazin-2-yl)cyclopropanecarboxamide]: 98.8%; for `NS(=O)(=O)c1cncc(-c2nc(NCc3ccccn3)c3c(-c4ccccc4Cl)ccn3n2)c1` [Example 136, 5-(5-(2-chlorophenyl)-4-((pyridin-2-ylmethyl)amino)pyrrolo [2,1-f][1,2,4]triazin-2-yl)pyridine-3-sulfonamide]: 98.7%; for `CS(=O)(=O)Nc1cncc(-c2nc(NCC3CCCCC3)c3c(-c4ccccc4)ccn3n2)c1` [Example 75, N-(5-(4-(cyclohexylmethylamino)-5-phenylpyrrolo[1,2-f] [1,2,4]triazin-2-yl)pyridin-3-yl)methanesulfonamide]: 90.9%.
The same measure, in the same setting: in the case of `COc1ccc(-c2nc(NCc3ccccn3)c3c(-c4ccc(OC)nc4)ccn3n2)cn1` [Example 7, 2,5-Bis(6-methoxypyridin-3-yl)-N-(pyridin-2-ylmethyl)pyrrolo[1,2-f][1,2,4]triazin-4-amine] it was 97.8%; in that of `CCOC(=O)CS(=O)(=O)Nc1cncc(-c2nc(NCc3ccccn3)c3c(-c4ccccc4)ccn3n2)c1` [Example 51, ethyl 2-(N-(5-(5-phenyl-4-(pyridin-2-ylmethylamino)pyrrolo[1,2-f][1,2,4]triazin-2-yl)pyridin-3-yl)sulfamoyl)acetate], 88.2%; in that of `COCCNC(=O)c1cncc(-c2nc(NCc3ccccc3)c3c(-c4ccccc4)ccn3n2)c1` [Example 85, 5-(4-(benzylamino)-5-phenylpyrrolo [1,2-f][1,2,4]triazin-2-yl)-N-(2-methoxyethyl) nicotinamide], 96.3%.
`NS(=O)(=O)c1cc(-c2nc(NCc3ccccn3)c3c(-c4ccccc4)ccn3n2)cnc1C(F)F` [Example 39, 2-(Difluoromethyl)-5-(5-phenyl-4-(pyridin-2-ylmethylamino)pyrrolo[1,2-f][1,2,4]triazin-2-yl)pyridine-3-sulfonamide]: the inhibition at 0.3 µM was 97.1%.
The same measure, in the same setting: in the case of `Nc1cncc(-c2nc(NCc3ncccn3)c3c(-c4ccccc4)ccn3n2)c1` [Example 162, 2-(5-aminopyridin-3-yl)-5-phenyl-N-(pyrimidin-2-ylmethyl)pyrrolo[2,1-f] [1,2,4]triazin-4-amine] it was 95.6%; in that of `O=C(c1nc(NCc2ccccc2)c2c(-c3ccccc3)ccn2n1)N1CCN(c2ccc(O)cc2)CC1` [Example 120, (4-(benzylamino)-5-phenylpyrrolo [1,2-f][1,2,4]triazin-2-yl)(4-(4-hydroxyphenyl)piperazin-1-yl)methanone], 49%.
Regarding `O=C(O)c1ccc(-c2nc(NCc3ccccc3)c3c(-c4ccccc4)ccn3n2)cn1` [Example 82, 5-(4-(benzylamino)-5-phenylpyrrolo [1,2-f][1,2,4]triazin-2-yl) picolinic acid], the inhibition at 0.3 µM is 17.6%.
Still for that read-out and setting: the same measure for `O=C(O)/C=C/c1cncc(-c2nc(NCc3ccccc3)c3c(-c4ccccc4)ccn3n2)c1` [Example 99, (E)-3-(5-(4-(benzylamino)-5-phenylpyrrolo [1,2-f][1,2,4]triazin-2-yl)pyridin-3-yl)acrylic acid]: 92.2%.
On the same count and under the same terms, in the case of `Nc1ncc(-c2nc(NCc3ccccn3)c3c(-c4ccccc4)ccn3n2)cc1S(N)(=O)=O` [Example 130, 2-amino-5-(5-phenyl-4-((pyridin-2-ylmethyl)amino)pyrrolo [2,1-f][1,2,4]triazin-2-yl)pyridine-3-sulfonamide] it was 97.6%; in that of `CS(=O)(=O)Nc1ccccc1CNc1nc(-c2cncc(S(N)(=O)=O)c2)nn2ccc(-c3ccccc3)c12` [Example 179, 5-(4-((2-(methylsulfonamido)benzyl)amino)-5-phenylpyrrolo [2,1-f][1,2,4]triazin-2-yl)pyridine-3-sulfonamide], 90.1%.
On the same count and under the same terms, the same measure for `N#Cc1cccc(-c2ccn3nc(-c4cncc(N)c4)nc(NCc4ccccn4)c23)c1` [Example 69, 3-(2-(5-aminopyridin-3-yl)-4-(pyridin-2-ylmethylamino)pyrrolo [1,2-f][1,2,4]triazin-5-yl)benzonitrile]: 80.3%; for `NC(=O)CCC(=O)Nc1cncc(-c2nc(NCc3ccccn3)c3c(-c4ccccc4)ccn3n2)c1` [Example 30, N1-(5-(5-Phenyl-4-(pyridin-2-ylmethylamino)pyrrolo[1,2-f][1,2,4]triazin-2-yl)pyridin-3-yl)succinamide]: 96.3%; for `NS(=O)(=O)c1cncc(-c2nc(NCc3cnccn3)c3c(-c4ccccc4F)ccn3n2)c1` [Example 156, 5-(5-(2-fluorophenyl)-4-((pyrazin-2-ylmethyl)amino)pyrrolo [2,1-f][1,2,4]triazin-2-yl)pyridine-3-sulfonamide]: 98.5%.
`CC(C)(O)c1cncc(-c2nc(NCc3ccccc3)c3c(-c4ccccc4)ccn3n2)c1` [Example 17, 2-(5-(4-(Benzylamino)-5-phenylpyrrolo[1,2-f][1,2,4]triazin-2-yl)pyridin-3-yl)propan-2-ol]: the inhibition at 0.3 µM was determined as 92.4%.
Still for that read-out and setting: in the case of `CC(C)OC(=O)Nc1cncc(-c2nc(NCc3ccccn3)c3c(-c4ccccc4)ccn3n2)c1` [Example 72, isopropyl 5-(5-phenyl-4-(pyridin-2-ylmethylamino)pyrrolo[1,2-f][1,2,4]triazin-2-yl)pyridin-3-ylcarbamate] it was 95.5%; in that of `NS(=O)(=O)c1cncc(-c2nc(NCc3ccccc3)c3c(-c4ccccc4)ccn3n2)n1` [Example 15, 6-(4-(Benzylamino)-5-phenylpyrrolo[1,2-f][1,2,4]triazin-2-yl)pyrazine-2-sulfonamide], 95.5%.
The same measure, in the same setting: in the case of `N#Cc1ccc(-c2ccn3nc(-c4cncc(S(N)(=O)=O)c4)nc(NCc4ccccn4)c23)cc1` [Example 107, 5-(5-(-4-cyanophenyl)-4-(pyridin-2-ylmethylamino)pyrrolo[1,2-f][1,2,4]triazin-2-yl)pyridine-3-sulfonamide] it was 15.6%; in that of `NS(=O)(=O)c1cncc(-c2nc(NCc3ccccn3)c3c(-c4cccnc4)ccn3n2)c1` [Example 148, 5-(4-(pyridin-2-ylmethylamino)-5-(pyridin-3-yl)pyrrolo [1,2-f][1,2,4]triazin-2-yl)pyridine-3-sulfonamide], 84.8%; in that of `COc1ncc(-c2nc(NCc3ccccc3)c3c(-c4ccccc4)ccn3n2)cc1S(=O)(=O)NC(C)(C)C` [Example 93, 5-(4-(benzylamino)-5-phenylpyrrolo [1,2-f][1,2,4]triazin-2-yl)-N-tert-butyl-2-methoxypyridine-3-sulfonamide], 41%.
The same measure, in the same setting: the same measure for `NS(=O)(=O)c1cncc(-c2nc(NCc3ncc[nH]3)c3c(-c4ccccc4)ccn3n2)c1` [Example 146, 5-(4-((1H-imidazol-2-yl)methylamino)-5-phenylpyrrolo [1,2-f][1,2,4]triazin-2-yl)pyridine-3-sulfonamide]: 78.7%; for `C1=C(c2nc(NCc3ccccc3)c3c(-c4ccccc4)ccn3n2)CCOC1` [Example 100, N-benzyl-2-(3,6-dihydro-2H-pyran-4-yl)-5-phenylpyrrolo [1,2-f][1,2,4] triazin-4-amine]: 96.9%; for `NS(=O)(=O)Nc1cccc(-c2nc(NCc3ccccn3)c3c(-c4ccccc4)ccn3n2)c1` [Example 50]: 97.8%.
As for `NS(=O)(=O)c1cncc(-c2nc(NCc3cccnn3)c3c(-c4ccccc4)ccn3n2)c1` [Example 108, 5-(5-phenyl-4-(pyridazin-3-ylmethylamino)pyrrolo [1,2-f][1,2,4]triazin-2-yl)pyridine-3-sulfonamide], the inhibition at 0.3 µM is 72%.
With `NS(=O)(=O)c1cncc(-c2nc(NCc3ccccn3)c3c(-c4ccccc4F)ccn3n2)c1` [Example 166, 5-(5-(2-fluorophenyl)-4-((pyridin-2-ylmethyl)amino)pyrrolo [2,1-f][1,2,4]triazin-2-yl)pyridine-3-sulfonamide], the inhibition at 0.3 µM was determined as 98%.
Same read-out and setting: in the case of `NS(=O)(=O)c1cc(-c2nc(NCc3ccccn3)c3c(-c4ccccc4)ccn3n2)cnc1O` [Example 49, 2-hydroxy-5-(5-phenyl-4-(pyridin-2-ylmethylamino)pyrrolo[1,2-f][1,2,4]triazin-2-yl)pyridine-3-sulfonamide] it was 84.9%.
